Assay results from patent publication US8936807B2, “Use of the cathelicidin LL-37 and derivatives thereof for wound healing” (Lipopeptide AB, priority 2003, dated 2015).

Key:
[1] = Storage of the CD samples for one month at 4° C.; type: physicochemical
Method: Samples for circular dichroism (CD) measurements were prepared in 10 mM aqueous phosphate buffer solution, pH 7.0, containing 200 ppm LL-37 (as the trifluoroacetate, lot 971/26), with and without 0.40% CPL-Galactolipid. The samples, 20 ml in 50 ml glass flasks, were vigorously shaken with an ST mixer (type B1, E. Büchler, Tübingen) set at 7.5 (corresponding to an approximate frequency of 220/min) for 2 h. They were then allowed to equilibrate and settle over night at 2-8° C.
An anionic synthetic phospholipid, palmitoyl-oleoyl-phosphatidylglycerol (POPG; Sigma-Aldrich, P6956) was used as a reference and tested using the same experimental conditions as described above.

HaCat cells [2] = assay: Proliferation and viability of HaCat cells measured by mitochondrial activity (WST-1); type: cell-based, human; conditions: LL-37 100 μg/ml, 10% serum, 48 h
Method: HaCat cells were used for these experiments. HaCat cells are an immortalized human keratinocyte cell line (Boukamp et al., J Cell Biol 106:761-771, 1988), which is suitable for experimental keratinocyte research. HaCat cells were cultured in medium (DMEM, +10% FCS and PEST). Both types of cell cultures were treated with synthetic, bioactive LL-37 (lot YS 5253). In addition a mixture of LL-37 (114 μg/ml) and CPL-Galactolipid (0.2%) in medium containing serum at either 2 or 10% was added to evaluate the capacity to increase proliferation and inhibit cytotoxicity. Cells were harvested at different time-points (24 h, 48 h, 72 h and 96 h) and counted by flowcytometry (Becton-Dickinson) and stained by Trypan-Blue to evaluate viability. […] Proliferation and viability were also ascertained by measuring mitochondrial activity (WST-1, Roche, Cook et al. Anal Biochem 179:1-7, 1989).

HaCat cells [3] = assay: Proliferation of HaCat cells assessed by 3H-Thymidine incorporation; type: cell-based, human; conditions: 10% serum, 96 h; for Increased Proliferation (%): vs control 0 μg/ml
Method: HaCat cells were cultured in medium (DMEM, +10% FCS and PEST). HaCaT cells were plated in 96 well plates (Falcon, USA) at the concentration of 2000 cells per well. Cells were plated at −48 hours and stimulated with different concen-trations of synthetic LL-37, LL-36, and LL-38 peptide by hour 0 and after 48 hours.
The testing was done in one experiment with 6 wells in each condition. […] of ^3H-Thymidine (THYMIDINE, [METHYL-^3H]-740.0 GBq/mmol (20.00 Ci/mmol) 1.0 ml of Ethanol:Water, 7:3, Perkin Elmer Life Sciences Inc. Boston Mass., USA) was added to each well and incubated for 12-17 hours. Proliferation was evaluated by ^3H-Thymidine incorporation a liquid scintilator (MicroBeta Perkin Elmer Life Sciences Inc. Boston Mass., USA) after 72 and 96 hours.

Human Wound Fibroblast = assay: Proliferation and viability of human wound fibroblasts (WST-1); type: cell-based; conditions: 48 Hours; for Increased Proliferation (%): vs control
Source text: (§1) The peptide LL-37 used in this and following tests was as described in Example 1 (lot 971/26). The fibroblasts, a type of stromal cells, were obtained from injured and uninjured skin in patients with chronic leg ulcers due to venous insufficiency. Punch-biopsies (4-mm) were taken from the wound margin including 50% of the epithelialized area and from uninjured skin in the knee region. Individuals with a history of diabetes mellitus, arterial insufficiency or chronic inflammatory disease were excluded. Patients with signs of eczema in the ulcer margin, clinical signs of infection or undergoing systemic or topical antibiotic treatment at the time for biopsy were also excluded. Patients included were all treated with inert local dressings and standard compression bandaging.
(§2) Fibroblast were put in culture using explant technique (Hehenberger et al., Cell Biochem Funct 15:197-201, 1997). Fibroblasts were plated in 96 well plates (Falcon, USA) at the concentration of 2000 cells per well. Cells were plated at −48 hours and stimulated with different concentrations of synthetic LL-37 peptide by hour 0. The testing was done in one experiment with 6 wells in each condition. Proliferation and viability were ascertained by measuring mitochondrial activity (WST-1, Roche) after 24 h and 48 h. Increase in cell proliferation (Proliferation Index) is calculated in comparison with baseline (Control=0 μg/ml). Mean values from six samples per condition in one experiment are presented.

Human Normal Fibroblast = assay: Proliferation and viability of human normal fibroblasts (WST-1); type: cell-based; conditions: 10% serum, 48 Hours; for Increased Proliferation (%): vs control
Source text: as §1, §2

[4] = LL-37 25 μg/ml, no lipid, 10% serum
[5] = LL-37 50 μg/ml, no lipid, 10% serum
[6] = LL-37 100 μg/ml, no lipid, 10% serum
[7] = LL-37 100 μg/ml, with lipid 0.2%, 2% serum

In the case of “LLGDFFRKSKEKIGKEFKRIVQRIKDFLRNLVPRTES [LL-37]”, the appearance after storage ([1]; LL-37 with POPG) is reported as “partially separated, with sediments on the bottom of the container”, the appearance after storage ([1]; LL-37 with galactolipid) is reported as “redispersed to a fine dispersion by gentle agitation” and the Absorbance (HaCat cells [2]) is reported as 1.110. The “Trypan Blue + (%)” value (HaCat cells [2]) was <1%, the “Increased Proliferation (%)” value (HaCat cells [2]; vs baseline) was 78% and the “Counts Per Minute (Mean)” value (HaCat cells [3]; LL-37 1.00 μg/ml) was 75445 Counts Per Minute. The “Increased Proliferation (%)” value (HaCat cells [3]; LL-37 1.00 μg/ml) was 43%, the “Counts Per Minute (Mean)” value (HaCat cells [3]; LL-37 5.00 μg/ml) was 102353 Counts Per Minute and the “Increased Proliferation (%)” value (HaCat cells [3]; LL-37 5.00 μg/ml) was 94%. For the same sequence, the “Counts Per Minute (Mean)” value (HaCat cells [3]; LL-37 10.00 μg/ml) was 73548 Counts Per Minute, the “Increased Proliferation (%)” value (HaCat cells [3]; LL-37 10.00 μg/ml) was 39% and the “Counts Per Minute (Mean)” value (HaCat cells [3]; LL-37 25.00 μg/ml) was 76510 Counts Per Minute. For the same sequence, the “Increased Proliferation (%)” value (HaCat cells [3]; LL-37 25.00 μg/ml) was 45%, the “Counts Per Minute (Mean)” value (HaCat cells [3]; LL-37 50.00 μg/ml) was 65119 Counts Per Minute and the “Increased Proliferation (%)” value (HaCat cells [3]; LL-37 50.00 μg/ml) was 23%. For the same sequence, the Absorbance (Human Wound Fibroblast; [4]) was 1.171, the “Increased Proliferation (%)” value (Human Wound Fibroblast; [4]) was 49% and the Absorbance (Human Wound Fibroblast; [5]) was 1.073. For the same sequence, the “Increased Proliferation (%)” value (Human Wound Fibroblast; [5]) was 37%, the Absorbance (Human Wound Fibroblast; [6]) was 0.955 and the “Increased Proliferation (%)” value (Human Wound Fibroblast; [6]) was 22%. The Absorbance (Human Wound Fibroblast; [7]) was 0.960, the “Increased Proliferation (%)” value (Human Wound Fibroblast; [7]) was 22% and the Absorbance (Human Normal Fibroblast; LL-37 25 μg/ml) was 0.597. The “Increased Proliferation (%)” value (Human Normal Fibroblast; LL-37 25 μg/ml) was 7%, the Absorbance (Human Normal Fibroblast; LL-37 50 μg/ml) was 0.626 and the “Increased Proliferation (%)” value (Human Normal Fibroblast; LL-37 50 μg/ml) was 12%. The Absorbance (Human Normal Fibroblast; LL-37 100 μg/ml) was 0.669 and the “Increased Proliferation (%)” value (Human Normal Fibroblast; LL-37 100 μg/ml) was 19%.
